Laboratory results reported in patent US20110230431A1, “FOSFOMYCIN/TOBRAMYCIN COMBINATIONS FOR THE TREATMENT AND PREVENTION OF OPHTHALMIC, OTOLOGICAL AND DERMATOLOGICAL INFECTIONS” (Gilead Sciences, Inc., priority 2008, published 2011).
Read-outs that look alike come from different tables or passages of the source.

Tests used:
P. aeruginosa ATCC 27853 = assay: Tobramycin uptake studies (3H-tobramycin); assay type: cell-based, Pseudomonas aeruginosa; settings: 10 μg/mL fosfomycin, 3H-tobramycin 2.3 μg/mL, FIG. 7
Protocol: The effects of fosfomycin uptake on tobramycin uptake were determined by measuring uptake of ^3H-tobramycin. A single colony of P. aeruginosa ATCC 27853 was inoculated into 5 mL nutrient broth (NB) (Difco & BBL; Sparks, Md.) and grown overnight at 37° C. with shaking (250 rpm). […] Five milliliter volumes were filtered through 0.45 μm nitrocellulose membrane filters (Whatman Inc., Florham Park, N.J.), pre-soaked with 410 mM MgCl2 (VWR). […] Data were expressed in CPM and represent the mean±SD of four independent experiments. Statistical differences were evaluated by the Student's t-test.

S. aureus = assay type: cell-based, Staphylococcus aureus
Protocol: Development of resistance after a single exposure to antibiotic was determined for both clinical and reference isolates of P. aeruginosa, S. aureus, and E. coli. Late Log-phase cultures were centrifuged at 1,400×g at room temperature for 20 min and the cell pellets resuspended in CAMHB. […] The culture plates were incubated at 37° C. for 48 h and the number of colonies on each plate was enumerated manually. The spontaneous mutation frequency (SMF) resulting in antibiotic resistance was calculated by dividing the number of bacteria growing at the defined antibiotic concentration by the number of bacteria in the inoculum (Martinex, J L, Antimicrob Agents Chemother 2000; 44 (1):1771-1777).

E. coli = assay: MIC by agar plate dilution method (CLSI); assay type: cell-based, Escherichia coli
Excerpt: P. aeruginosa strains isolated from patients with cystic fibrosis (CF) were obtained from Children's Hospital and Regional Medical Center (Seattle, Wash.). Clinical isolates of Escherichia coli and Staphylococcus aureus were obtained from The Jones Group Laboratories (JMI; North Liberty, Iowa) and The Clinical Microbiology Institute (CMI; Wilsonville, Oreg.). P. aeruginosa 27853, S. aureus 29213, and E. coli 25922 served as quality control strains^1 and were obtained from The America Type Culture Collection (ATCC; Manassas, Va.). P. aeruginosa ATCC 27853, a fosfomycin and tobramycin susceptible strain, was used in macromolecular biosynthesis and tobramycin uptake experiments. Stock cultures were maintained at −80° C. in Cation-Adjusted Mueller-Hinton Broth (CAMHB) (Remel; Lenexa, Kans.) supplemented with 20% glycerol (VWR: West Chester, Pa.). Cultures for routine use were grown on tryptic soy agar plates+5% sheeps blood (PML Microbiologicals Inc.; Wilsonville, Oreg.) and stored at 4° C.
MICs were determined by the agar plate dilution method according to CLSI guidelines (National Committee for Clinical Laboratory Standards. M7-A6. 6th ed. Villanova (Pa.): NCCLS, 2003; M100-S14. Villanova (Pa.): NCCLS, 2004).

| Compound | Frequency of Resistance 4× MIC (S. aureus; S. aureus ATCC 29213, 4× MIC) | Frequency of Resistance 8× MIC (S. aureus; S. aureus ATCC 29213, 8× MIC) | Frequency of Resistance 16× MIC (S. aureus; S. aureus ATCC 29213, 16× MIC) | Frequency of Resistance 4× MIC (S. aureus; S. aureus C051, 4× MIC) | Frequency of Resistance 8× MIC (S. aureus; S. aureus C051, 8× MIC) | Frequency of Resistance 16× MIC (S. aureus; S. aureus C051, 16× MIC) | Frequency of Resistance 4× MIC (S. aureus; S. aureus C053, 4× MIC) | Frequency of Resistance 16× MIC (S. aureus; S. aureus C053, 16× MIC) | Frequency of Resistance 4× MIC (S. aureus; S. aureus C055, 4× MIC) | Frequency of Resistance 8× MIC (S. aureus; S. aureus C055, 8× MIC) | Frequency of Resistance 16× MIC (S. aureus; S. aureus C055, 16× MIC) | Frequency of Resistance 4× MIC (S. aureus; S. aureus C057, 4× MIC) | Frequency of Resistance 8× MIC (S. aureus; S. aureus C057, 8× MIC) | Frequency of Resistance 16× MIC (S. aureus; S. aureus C057, 16× MIC) | other results |
| --- | --- | --- | --- | --- | --- | --- | --- | --- | --- | --- | --- | --- | --- | --- | --- |
| C[C@@H]1O[C@@H]1P(=O)(O)O [Fosfomycin, fosfomycin disodium] | 2.6 × 10^−8 | 5.0 × 10^−8 | <1.8 × 10^−10 | 3.0 × 10^−5 | 3.6 × 10^−7 | 8.4 × 10^−6 | 7.7 × 10^−3 | 4.3 × 10^−6 | 2.5 × 10^−6 | <4.3 × 10^−9 | 8.2 × 10^−6 | 2.1 × 10^−5 | 1.1 × 10^−7 | 2.0 × 10^−7 | increase in 3H-tobramycin uptake relative to the no-fosfomycin control (P. aeruginosa ATCC 27853): 170%; Frequency of Resistance 8× MIC (S. aureus; S. aureus C053, 8× MIC): 1.7 × 10^−7; MIC (E. coli; Escherichia coli, ATCC25922, E. coli ATCC 25922, read-out: MIC): 2 µg/mL; MIC (E. coli; Escherichia coli, E. coli C032, read-out: MIC): 1 µg/mL; MIC (E. coli; Escherichia coli, E. coli C036, read-out: MIC): 2 µg/mL; MIC (E. coli; Escherichia coli, E. coli C037, read-out: MIC): 1 µg/mL; MIC (E. coli; Escherichia coli, E. coli C294, read-out: MIC): 0.5 µg/mL |
| tobramycin sulfate | 1.6 × 10^−7 | 3.9 × 10^−8 | <1.8 × 10^−10 | 3.5 × 10^−6 | 1.5 × 10^−8 | <2.0 × 10^−10 | 2.0 × 10^−7 | <2.3 × 10^−10 | 3.8 × 10^−7 | <4.3 × 10^−9 | <2.3 × 10^−10 | 1.1 × 10^−6 | <1.4 × 10^−10 | <3.2 × 10^−10 | MIC (E. coli; E. coli ATCC 25922): 0.5 µg/mL; MIC (E. coli; E. coli C032): 0.5 µg/mL; MIC (E. coli; E. coli C036): 0.5 µg/mL; MIC (E. coli; E. coli C037): 4 µg/mL; MIC (E. coli; E. coli C294): 0.5 µg/mL |
